Test results published in patent US9546381B2, “Use of anticoagulants in the production of recombinant proteins in the milk of transgenic animals” (priority 2010, dated 2017).
Values joined by “and” are separate entries in the source; they are usually repeats but may differ in a detail not shown here. Identical values can stand only once. Marks after values point to notes of the source that are not given here.

Key:
[1] = system: clot formation in the milk of a transgenic cow; experiment: Heparin therapy in one transgenic cow, clot scores; format: in vivo
Protocol: The inventors also used heparin therapy in one transgenic cow to evaluate if it would prevent clot formation at a dose of 150 IU/kg SQ twice a day, for 5 days. While when the heparin was administered to this cow, the clot scores decreased. […] However, due to the high costs of using heparin, that treatment was not further investigated. Other anticoagulants can be used but many have the disadvantage that they need to be injected intravenously or subcutaneously rather than be or administered orally.

[2] = system: clots and flakes in the milk of transgenic rhFib cattle; experiment: Clot scoring of milk of transgenic rhFib cattle during induced lactation; format: in vivo; design: key to clot scores / clot score: 0: Normal milk; 1: Flakes; 2: Less than 10 clots from the quarter on the CMT paddle; 3: Greater than 10 clots from the quarter on the CMT paddle; 4: Severe visible clots
Excerpt: Recombinant human fibrinogen has been produced in the milk of transgenic cows for some years now. […] To score the level of clotting and to measure any effects, standards were set to determine whether treatment of the cows to reduce clotting was indeed effective. The standards are provided in Table I. Score level 0 is equal to normal milk from non-transgenic cows, whereas score level 4 equals a dramatic level of clotting and the milking machine is unable to extract the milk from the teat. CMT stands for ‘California Mastitis Test’ and is a standard cow side test that screens for the presence of mastitis, a known cause of milk clotting. When a cow is milked, the milk is collected in a so-called CMT paddle, which has four cups corresponding to the four quarters of the udder. To these cups, equal amounts of CMT solution (made up of a detergent to break down cell walls, a compound that reacts with the cellular DNA and a pH indicator; California Mastitis Test kit, TechniVet, Brunswick, Me.) is added after which the solution is swirled. The CMT solution provides an estimate of the number of cells in the milk (inflammatory cells due to infection by mastitis). As the cell content increases the mixture becomes thick and gel-like and the results are based on the appearance of the solutions. ‘Negative’ in the mastitis test means that the mixture remains fluid; ‘suspicious’ means that the mixture becomes slimy or gel like, and ‘positive’ means that the mixture distinctly forms a gel or jelly. […] The lack of mastitis was also confirmed by the fact that in laboratory tests no inflammatory-inducing bacteria were grown from the rhFib transgenic cow milk. Finally the clinical signs of the cows confirmed that infectious mastitis was not the etiology of the clotting. […] The (blue) staining by the CMT solution provided a useful tool to visualize the clots and helped to distinguish between some of the low scores of rate 1 and 2.
A cow's udder has four quarters, each with their own teat. A cow may loose a quarter due to mastitis but still give milk through the remaining quarters. […] Therefore at each milking period, each quarter was given a clot score and recorded on her milk sheet form. The highest score on the paddle for each day was considered the cow's score for that day when complying the clotting data.
With natural lactation, it is common for cattle to develop swelling and edema in their udders around the time of calving and as they “come into milk” during the first few weeks of lactation. This inflammation of the mammary tissue may activate the rhFib and lead to precipitation within the mammary tissue. This then may lead to a decrease in the milk production and difficulty in removing the milk from the gland. It was hypothesized by the inventors that by a non-natural lactation (that is: by a chemical/hormonal lactation induction), this udder swelling and edema would be avoided and the rhFib would not be activated. This would facilitate an easier lactation with minimal precipitation. For this reason, lactation induction was chosen to produce rhFib in cow #13.
After this, all clot scores remained between 0-1. […] This dose was maintained during day 17 to day 31 and all clot scores still remained between 0-1.
Seven transgenic rhFib cattle were induced to lactate using an estradiol-progesterone alcohol solution and dexamethasone injections as outlined above. From these seven animals, after an initial 34 days of milking, five transgenic cattle were selected to complete an ongoing 16 week lactation period (146 days in total). During this 16 week period 5 liters of milk was saved per animal per week for future production purposes. If an animal was to develop consistent clotting within this production period then a treatment trial with warfarin would begin. Data was collected on these animals to see what level of clot scores they generally reached. […]

[3] = Determination of warfarin dosing in non-transgenic non-lactating cows (PT time, adverse effects); format: in vivo, cattle
Protocol: An initial experiment was performed to determine a dose range of warfarin in cattle. […] The doses therein range from 0.012 to 0.57 mg/kg.
An initial baseline Prothombin time (PT time) and Hematocrit (Hct) were determined. For cow #4289 Hct was 38 and PT was 25.9 seconds. For cow #6685 Hct was 27 and PT time was 26.7 seconds. PT time is a laboratory assay that reflects the depression of vitamin K dependent Factors II, -VII and -X. The PT times were used to determine the final dosing. The PT time test that is generally used in the art, looks at coagulation factors Factor I (fibrinogen), Factor II (prothrombin), Factor V, Factor VII and Factor X, that are all involved in clotting. The test measures the time it takes for a patient's blood to clot. […] The Hct value is helpful to determine if the animal is becoming anemic (i.e. blood loss that would not be grossly evident). In general, Hct is not checked unless one is concerned that blood loss is occurring.
Initially a dose necessary to double the baseline PT times was to be determined and then the dose was to be increased to monitor for adverse affects. It was decided that if the PT levels began to be prolonged over 2.5 times baseline, or Hct fell below 15% the dose would be decreased. Likewise, it was held that the dose would be decreased or discontinued if any of the following disorders would appear: hematomas, anemia, epistaxis, hematemesis, hematuria, melena, hemathrosis, hemothrax, weakness or hematochezia, or bleeding within the udder. Therapy with vitamin K1 and whole blood would be initiated if there was evidence of […] bleeding.
Moreover, and for the same reason, pregnant animals were also not treated with warfarin.
The dose was increased by 10 mg/day until a dose of 100 mg/day was given (˜0.14 mg/kg). Then, this dose was maintained for 12 days. […] Therefore the following adjustments were made: First, the animal was sedated with xylazine, and second, blood was only collected from the jugular vein while the animal's head was tightly restrained. The dose was increased to 120 mg/day (˜0.17 mg/kg) for 17 days.
It took 6 days of therapy for the PT times to double. […] For this reason, this dose of approximately 0.18 mg/kg was then considered unsafe for use in the transgenic rhFib cows.

[4] = system: clots and flakes in the milk of rhFib transgenic cattle; experiment: Clot scoring of milk of rhFib transgenic cow and heifers during natural lactation; format: in vivo; conditions: all five animals
Excerpt: Recombinant human fibrinogen has been produced in the milk of transgenic cows for some years now. […] To score the level of clotting and to measure any effects, standards were set to determine whether treatment of the cows to reduce clotting was indeed effective. The standards are provided in Table I. Score level 0 is equal to normal milk from non-transgenic cows, whereas score level 4 equals a dramatic level of clotting and the milking machine is unable to extract the milk from the teat. CMT stands for ‘California Mastitis Test’ and is a standard cow side test that screens for the presence of mastitis, a known cause of milk clotting. When a cow is milked, the milk is collected in a so-called CMT paddle, which has four cups corresponding to the four quarters of the udder. To these cups, equal amounts of CMT solution (made up of a detergent to break down cell walls, a compound that reacts with the cellular DNA and a pH indicator; California Mastitis Test kit, TechniVet, Brunswick, Me.) is added after which the solution is swirled. The CMT solution provides an estimate of the number of cells in the milk (inflammatory cells due to infection by mastitis). […]
A cow's udder has four quarters, each with their own teat. […] Therefore at each milking period, each quarter was given a clot score and recorded on her milk sheet form. […]

[5] = for 5 days; cited from earlier work
[6] = system: recombinant human fibrinogen (rhFib); experiment: ELISA of rhFib concentration in the milk of warfarin-treated transgenic heifers; conditions: for rhFib level: ELISA, lines = day, warfarin started on day 1

For heparin, the clot scores ([1]; 150 IU/kg SQ twice a day for 5 days, during administration) was “decreased” and the clot scores ([1]; after heparin therapy was discontinued) was “remained low and decreased further with time”.

In the case of CC(=O)CC(c1ccccc1)c1c(O)c2ccccc2oc1=O (centres unmarked) [warfarin], the clot scores ([2]; #462 and #463, dry off period after warfarin stopped) is reported as 3 (Greater than 10 clots from the quarter on the CMT paddle), the clot score ([2]; #462 at day 125, single score during treatment) is reported as 1 and the clot scores ([2]; #462 at day 149, after warfarin stopped at day 142, milk started to plug the filters) is reported as 1. For the same compound, the clot scores ([2]; #463 at day 161, single quarter, after warfarin stopped at day 142) was 1, the “time until clot scores increased to level 3 after warfarin was stopped” value ([2]; #474, stopped at day 142 of milking) was at most 3 days and the “Highest clot score, #474 Frey” value ([2]; after discontinuation of warfarin on day 142 of lactation, lines = week of lactation) was 3* (Greater than 10 clots from the quarter on the CMT paddle). For the same compound, the clot scores ([2]; cow #13, 0.12 mg/kg, day 17 to day 31) was 0-1, the adverse effects ([2]; cow #13, 0.12 or 0.13 mg/kg per day) was “No adverse effects were observed” and the clot scores ([2]; cow #13, 7 days after warfarin therapy was re-initiated) was 1. The clot scores ([2]; cow #13, 18 days after warfarin was again discontinued, until dried off) was 2 (Less than 10 clots from the quarter on the CMT paddle), the clot scores ([2]; cow #13, induced lactation, 0.13 mg/kg orally once a day from Time 0) was 0-1 and the clot scores ([2]; cow #13, over the next 11 days after re-initiation) was 0. For the same compound, the clot scores ([2]; cow #13, warfarin discontinued for 19 days) was 2 (Less than 10 clots from the quarter on the CMT paddle), the “clot scores reached with warfarin treatment” value ([2]; cow #13, within a week (conclusion)) was 0-1 and the clot scores ([2]; three heifers #462, #463, #474, within a week after warfarin therapy was initiated) was 1. The “PT times equal to or above twice the baseline value” ([2]; three rhFib-transgenic heifers, 0.10 mg/kg daily, PT monitored weekly) was “did not occur”, the adverse effects ([3]; cow #4289, 120 mg/day (~0.17 mg/kg) orally for 17 days) was “no adverse effects were observed” and the adverse effects ([3]; cow #4289, 130 mg/day (~0.18 mg/kg) orally for 6 days, animal euthanized) was “developed a bleeding hematoma over the shoulder/thorax”. The “days of therapy for the PT times to double” value ([3]; cow #6685, 100 mg/day (~0.18 mg/kg)) was 6 days, the adverse effects ([3]; cow #6685, 100 mg/day (~0.18 mg/kg) orally for 14 days) was “No adverse affects were found” and the “adverse reactions from the warfarin treatment” value ([4]; 0.10 to max 0.15 mg/kg) was “did not show any adverse reactions”. The highest clot scores ([4]; after a few days of warfarin 0.10 mg/kg) was 0-1, the LD50 for cattle [5] was 200 mg/kg/day and the rhFib level ([6]; heifer 462) was 1.3 mg/ml raw milk and 2.09 mg/ml raw milk. For the same compound, the rhFib level ([6]; heifer 463) was 1.61 mg/ml raw milk, the rhFib level ([6]; heifer 474) was 0.41 mg/ml raw milk and 0.58 mg/ml raw milk and the “concentration of rhFib in milk over time upon warfarin treatment” value ([6]; three warfarin-treated heifers, while clot score levels drop) was “seem to increase”.
